Assay in all cases: NCI anticancer screen, dose series, 48 h
For assay [1], the system named is A549 NSCLC.
Assay [2] concerns CAKI-1 renal.
In assay [3] the test system is COLO 205 colon.
For assay [4], the system named is EKVX NSCLC.
The test system of assay [5] is HT29 colon.
Assay [6] concerns MALME-3M melanoma.
Assay [7] deals with NCI-H460 lung.
Assay [8] has as its system SF-295 CNS.
For assay [9], the system named is SNB-75 CNS.
Assay [10] has as its system UACC-257 melanoma.

The text below walks through data of PubChem BioAssay (NCI).

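96-well plates; 48 h exposure; 5 concentrations. Endpoints by linear interpolation between flanking doses. Not reached: highest tested concentration assigned. GI50 is the concentration that inhibits growth by half. At the TGI there is no net growth.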 Where a SMILES comes first, the peptide text is derived from it. The star is where a group is joined. Cbz = O=C(OCc1ccccc1)* Some results are limits rather than exact numbers.

Take `CC(C)[C@](O)(C(=O)OCC1=CCN2CC[C@@H](O)[C@@H]12)[C@H](C)O`: the TGI in [1], in assay [2], in assay [3], in assay [4], in assay [5] and in [6] was above 375 µM in each case. The TGI in assay [7], in assay [8], in assay [9] and in [10] was above 375 µM in each case.

On to `NC(C(=O)OC(=O)c1ccccc1)C(=O)OC(=O)c1ccccc1`, for which the TGI in assay [1], in assay [2], in assay [3], in assay [4], in assay [5] and in assay [6] was above 100 µM each time. For the same compound, the TGI in assay [7], in [8], in assay [9] and in [10] was above 100 µM throughout.

As to `CC(=O)C1=C(C)N(c2ccccc2)C2(O)C=CC(=O)C3=C(O)c4ccccc4C(=O)C312` (stereo not given), the TGI in [1] is above 100 µM; in assay [2] it was 33.3 µM; in [3], 36.8 µM; in assay [4] it was 49.1 µM; in assay [5] it was above 100 µM; in assay [6], 2.64 µM. Besides, the TGI is above 100 µM in assay [7], 38.5 µM in assay [8], above 100 µM in assay [9] and 21 µM in assay [10].

Take `Cc1cc(C)c(C(=O)/C=C/c2ccccc2)c(C)c1`: the TGI in assay [1] is above 100 µM; in [2], above 100 µM; in assay [3] it was 71.3 µM; in assay [4] it was above 100 µM; in assay [5], above 100 µM; in assay [6] it was 83.5 µM. Further, the TGI in [7] was 39.3 µM; in [8] it was 48.8 µM; in [9], above 100 µM; in assay [10], above 100 µM.

`CCCCS(=O)CC(CO)NC(=O)/C=C/c1c(C)[nH]c(=O)[nH]c1=O` (stereo not given): the TGI in assay [1] stood at 87.1 µM; in assay [2], 114 µM; in [3], 53.4 µM; in assay [4] it was 43 µM; in assay [5], 122 µM; in assay [6], 14.6 µM. Moreover, the TGI was determined as 17.2 µM in assay [7], 38.8 µM in assay [8], 30 µM in assay [9] and 55 µM in [10].

With `COc1ccc2c(c1)CCN1C3=C(CCC3)C(=O)C[C@@H]21`, the TGI in [1], in [2], in assay [3], in assay [4], in assay [5] and in assay [6] was above 100 µM throughout. The TGI in [7], in assay [8], in assay [9] and in assay [10] was above 100 µM throughout.

As for `Cn1c(=O)c2nc(NCCO)cnc2n(C)c1=O`, the TGI in [1], in assay [2], in assay [3], in [4], in [5] and in [6] was above 100 µM in each case. Moreover, the TGI is above 100 µM in assay [7], above 100 µM in assay [8], 42.4 µM in [9] and above 100 µM in assay [10].

`CCOC(=O)CNC(=O)C(C)NC(=O)C(NC(=O)OCc1ccccc1)C(C)C` (stereo not drawn) (Cbz-Val-Ala-Gly-OEt; configuration not given here): the TGI in assay [1], in assay [2], in assay [3], in assay [4], in [5] and in assay [6] was above 100 µM each time. In addition, the TGI in assay [7], in assay [8], in [9] and in assay [10] was above 100 µM in each case.

Take `O=C1CCCN1CCCN=c1cc2n(-c3ccc(Cl)cc3)c3ccccc3nc-2cc1Nc1ccc(Cl)cc1`: the TGI in assay [1] was 35.3 µM; in assay [2], above 100 µM; in assay [3], 2.83 µM; in assay [4] it was 28.1 µM; in assay [5], 13 µM; in assay [6], 38.3 µM. Further, the TGI in assay [7] turned out to be 22.1 µM; in assay [8] it was 40.7 µM; in assay [9], 97.5 µM; in assay [10] it was 24.7 µM.

As to `Nc1c2c(nc3ccccc13)CCCc1ccccc1-2`, the TGI is 49 µM in assay [1]; 40.9 µM in assay [2]; 24.4 µM in [3]; 38.9 µM in assay [4]; 22.5 µM in assay [5]; 33.5 µM in assay [6]. For the same compound, the TGI in assay [7] worked out at 14.5 µM; in assay [8], 24 µM; in assay [9], 26.6 µM; in assay [10] it was 27.1 µM.

Take `C=CCn1c(-c2ccc(Cl)cc2Cl)csc1=Nc1c(C)n(C)n(-c2ccccc2)c1=O`: the TGI in [1] stood at 23.1 µM; in assay [2], 31.7 µM; in assay [3], 25.6 µM; in assay [4] it was 13.5 µM; in [5], 25.3 µM; in assay [6], 31.4 µM. For the same compound, the TGI in [7] was 27.1 µM; in assay [8], 21.2 µM; in [9], 24.5 µM; in [10], 19.2 µM.

As to `O=[N+]([O-])c1ccc(COc2cccc3cccnc23)cc1`, the TGI in assay [1] is above 100 µM; in assay [2], 75 µM; in assay [3], 33.5 µM; in assay [4], 70.3 µM; in [5], above 100 µM; in [6], above 100 µM. Besides, the TGI in assay [7] was 17.2 µM; in [8], above 100 µM; in [9], 78.3 µM; in assay [10], 54.8 µM.

For the compound `COc1cc(Nc2nc3ccccc3nc2C(C)C)cc(OC)c1OC`, the TGI in [1], in [2], in assay [3], in [4], in assay [5] and in [6] was above 100 µM in each case. The TGI in assay [7], in [8], in [9] and in assay [10] was above 100 µM each time.

As for `CCn1c(=O)c2c3cc(OC(C)=O)ccc3oc2c2ccc(OC(C)=O)cc21`, the TGI in [1] is above 100 µM; in assay [2] it was above 100 µM; in assay [3], 55.6 µM; in assay [4], 70.3 µM; in assay [5], above 100 µM; in [6], above 100 µM. For the same compound, the TGI in assay [7] is above 100 µM; in assay [8], 72 µM; in [9], 45 µM; in assay [10], above 100 µM.

As to `O[C@H]1[C@H](O)[C@@H](Cn2nnc(-c3ccccc3)c2-c2ccccc2)OCO[C@@H]1Cn1nnc(-c2ccccc2)c1-c1ccccc1`, the TGI came to 13.5 µM in [1]; 14.2 µM in assay [2]; 12.2 µM in assay [3]; 30.1 µM in assay [4]; 3.61 µM in assay [5]; 29.6 µM in assay [6]. The TGI in assay [7] amounted to 13.4 µM; in [8], 13 µM; in assay [9] it was 28.9 µM; in assay [10], 15.1 µM.

On to `Oc1ccccc1-c1nn2c(CCCCCCCCc3nnc4sc(-c5ccccc5O)nn34)nnc2s1`, for which the TGI is above 78 µM in assay [1]; above 100 µM in [2]; above 100 µM in assay [3]; above 88.9 µM in assay [4]; above 67.7 µM in assay [5]; above 100 µM in assay [6]. Besides, the TGI in assay [7] is above 100 µM; in [8] it was above 100 µM; in assay [9], above 86.1 µM; in assay [10], above 100 µM.

For `Cc1cc(C)c2c(=O)cc(-c3ccc4ccccc4c3)[nH]c2n1`, the TGI in assay [1] was above 100 µM; in assay [2], above 100 µM; in assay [3], 48.1 µM; in [4], above 100 µM; in assay [5], 59.8 µM; in [6] it was above 100 µM. Further, the TGI in assay [7] was above 100 µM; in [8], above 93 µM; in [9], above 90.7 µM; in assay [10] it was above 59.6 µM.

Turning to `CC(=O)OC(=C(C#N)C#N)c1nccnc1C(C)=O`, the TGI in [1] is above 20 µM; in assay [2] it was above 20 µM; in [3] it was 11.5 µM; in assay [4], above 20 µM; in [5] it was 8.94 µM; in [6], above 20 µM. Further, the TGI in [7] was above 20 µM; in assay [8] it was above 20 µM; in assay [9], 18.6 µM; in assay [10], above 20 µM.

As for `CNc1nc2c(C)ccc3[nH]c(N(C)C)nc3c-2n1`, the TGI is above 100 µM in assay [1]; above 100 µM in assay [2]; above 100 µM in assay [3]; above 100 µM in assay [4]; above 100 µM in [5]; 95.6 µM in [6]. The TGI in assay [7], in assay [8], in assay [9] and in assay [10] was above 100 µM in each case.

Take `NC(=O)C1CCCN1C(=O)N(CCCl)N=O` (stereo not given): the TGI in assay [1], in [2], in assay [3], in assay [4], in assay [5] and in [6] was above 100 µM each time. Besides, the TGI in assay [7] is above 100 µM; in assay [8], above 100 µM; in assay [9] it was 72.8 µM; in assay [10], above 100 µM.

Take `O=C1Nc2ccccc2/C1=C\c1c(Cl)nc2n1CCS2`: the TGI in assay [1] is above 100 µM; in assay [2], above 100 µM; in assay [3], 38.5 µM; in assay [4] it was above 100 µM; in assay [5], above 100 µM; in [6] it was 62.1 µM. For the same compound, the TGI in assay [7] stood at 45.3 µM; in [8] it was 99.6 µM; in [9] it was 56.8 µM; in [10], 30.6 µM.

For the compound `C[C@]12CCc3sc(-c4cccc(F)c4)nc3C1=CC[C@@H]1[C@@H]2CC[C@]2(C)C(=O)CC[C@@H]12`, the GI50 was 3.95 µM in assay [1]; 1.87 µM in [2]; 2.42 µM in assay [3]; 4.79 µM in assay [4]; 2.69 µM in assay [5]; 1.8 µM in assay [6]. Besides, the GI50 is 2.78 µM in [7], 1.59 µM in [8], 3.43 µM in assay [9] and 6.12 µM in assay [10]. Besides, the TGI in [1] is 31.5 µM; in assay [2] it was 3.76 µM; in assay [3] it was 5.46 µM; in [4], 87.2 µM; in assay [5] it was above 100 µM; in assay [6] it was 4.13 µM. For the same compound, the TGI in assay [7] is 8.27 µM; in [8] it was 4.91 µM; in assay [9], above 100 µM; in assay [10], above 100 µM.

On to `CSc1ccc2c(cc1=O)[C@@H](NC(=O)c1ccc([N+](=O)[O-])cc1)CCc1cc(O)c(O)c(O)c1-2`, for which the TGI in [1] was 77.7 µM; in assay [2] it was 42.6 µM; in assay [3], 53.7 µM; in [4] it was above 100 µM; in [5] it was 40.8 µM; in assay [6], above 100 µM. Besides, the TGI in assay [7], in assay [8], in assay [9] and in [10] was above 100 µM in each case.

Regarding `O=[p+]1c2ccccc2[nH]c2ccccc21`, the TGI in assay [1], in [2], in [3], in assay [4], in assay [5] and in [6] was above 100 µM each time. For the same compound, the TGI in assay [7], in assay [8], in [9] and in [10] was above 100 µM in each case.

As to `CCOC(=O)c1cn2c(ccc3sc4ccccc4c(=O)c32)n1`, the TGI in assay [1], in assay [2], in assay [3], in assay [4], in assay [5] and in [6] was above 100 µM in each case. Moreover, the TGI in [7], in assay [8], in assay [9] and in [10] was above 100 µM in each case.

On to `O=[N+]([O-])c1ccc(O)c(C=NCC2CCCN3CCCCC23)c1` (stereo not given), for which the TGI in assay [1] is above 100 µM; in [2], above 100 µM; in [3], 75.9 µM; in assay [4] it was above 100 µM; in [5] it was above 100 µM; in assay [6], above 100 µM. For the same compound, the TGI in assay [7], in [8], in [9] and in [10] was above 100 µM throughout.
